# Results from ChEMBL document CHEMBL1201861, “Genomics of Drug Sensitity in Cancer screening data, Wellcome Trust Sanger Institute”.
# Where “and” joins values, the source holds several entries; their conditions need not be identical. Identical values can stand only once.
# Columns and labels:
# Test in all cases: cells
# DOHH-2 = type: functional, cell-based; details: Homo sapiens;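 note: growth inhibition of human DOHH-2 cells, read out with a cell viability assay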
# Description: SANGER: Inhibition of human DOHH-2 cell growth in a cell viability assay.
# BXPC-3 = type: functional, cell-based, Homo sapiens;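 note: growth inhibition of human BxPC-3 cells, read out by a cell viability assay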
# Description: SANGER: Inhibition of human BxPC-3 cell growth in a cell viability assay.
# NCI-H727 = type: functional, cell-based, Homo sapiens;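 note: growth inhibition of human NCI-H727 cells, read out with a cell viability assay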
# Description: SANGER: Inhibition of human NCI-H727 cell growth in a cell viability assay.
# NCI-N87 = type: functional, cell-based, Homo sapiens;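 note: growth inhibition of human NCI-N87 cells, read out with a cell viability assay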
# Description: SANGER: Inhibition of human NCI-N87 cell growth in a cell viability assay.
# DOK = type: functional, cell-based, Homo sapiens;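 note: cell viability assay read-out, values reflect inhibition of cell growth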
# Description: SANGER: Inhibition of human DOK cell growth in a cell viability assay.
# A2058 = type: functional, cell-based; details: Homo sapiens;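 note: reduction of A2058 cell growth, read out with a viability assay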
# Description: SANGER: Inhibition of human A2058 cell growth in a cell viability assay.
# LS-1034 = type: functional, cell-based, Homo sapiens
# Description: SANGER: Inhibition of human LS-1034 cell growth in a cell viability assay.
# SBC-5 = type: functional, cell-based, Homo sapiens;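 note: cell viability assay read-out, IC50 is the concentration that inhibits growth of the cells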
# Description: SANGER: Inhibition of human SBC-5 cell growth in a cell viability assay.
# EOL1 = type: functional, cell-based; details: Homo sapiens;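 note: growth inhibition of EoL-1 cells, read out by a cell viability assay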
# Description: SANGER: Inhibition of human EoL-1-cell cell growth in a cell viability assay.
# AM-38 = type: functional, cell-based, Homo sapiens;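 note: growth inhibition of AM-38 cells of human origin, read out by a cell viability assay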
# Description: SANGER: Inhibition of human AM-38 cell growth in a cell viability assay.
# TE-11 = type: functional, cell-based, Homo sapiens;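 note: growth inhibition of human TE-11 cells, read out by a cell viability assay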
# Description: SANGER: Inhibition of human TE-11 cell growth in a cell viability assay.
# D-263MG = type: functional, cell-based, Homo sapiens
# Description: SANGER: Inhibition of human D-263MG cell growth in a cell viability assay.
# HT = type: functional, cell-based; details: Homo sapiens
# Description: SANGER: Inhibition of human HT cell growth in a cell viability assay.
# HCC1569 = type: functional, cell-based, Homo sapiens;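 note: growth inhibition of human HCC1569 cells, read out with a cell viability assay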
# Description: SANGER: Inhibition of human HCC1569 cell growth in a cell viability assay.
# EW-16 = type: functional, cell-based, Homo sapiens;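 note: growth inhibition of human EW-16 cells, read out as cell viability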
# Description: SANGER: Inhibition of human EW-16 cell growth in a cell viability assay.
# KINGS-1 = type: functional, cell-based, Homo sapiens;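 note: cell viability assay measuring suppression of KINGS-1 cell growth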
# Description: SANGER: Inhibition of human KINGS-1 cell growth in a cell viability assay.
# OMC-1 = type: functional, cell-based, Homo sapiens;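 note: growth inhibition of the OMC-1 cell line, measured by a cell viability assay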
# Description: SANGER: Inhibition of human OMC-1 cell growth in a cell viability assay.
# RS4-11 = type: functional, cell-based; details: Homo sapiens;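 note: growth inhibition of RS4-11 cells, read out by a cell viability assay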
# Description: SANGER: Inhibition of human RS4-11 cell growth in a cell viability assay.
# HOP-92 = type: functional, cell-based, Homo sapiens;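 note: cell viability readout, with IC50 reflecting inhibition of HOP-92 cell growth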
# Description: SANGER: Inhibition of human HOP-92 cell growth in a cell viability assay.
# NH-12 = type: functional, cell-based, Homo sapiens;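 note: growth inhibition of NH-12 cells, read out with a cell viability assay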
# Description: SANGER: Inhibition of human NH-12 cell growth in a cell viability assay.
# DB = type: functional, cell-based; details: Homo sapiens
# Description: SANGER: Inhibition of human DB cell growth in a cell viability assay.
# NCI-H2052 = type: functional, cell-based, Homo sapiens;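 note: growth inhibition of NCI-H2052 cells, read out with a cell viability assay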
# Description: SANGER: Inhibition of human NCI-H2052 cell growth in a cell viability assay.
# KY821 = type: functional, cell-based; details: Homo sapiens;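 note: growth inhibition of human KY821 cells, read out by a cell viability assay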
# Description: SANGER: Inhibition of human KY821 cell growth in a cell viability assay.
# KM12 = type: functional, cell-based, Homo sapiens;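 note: KM12 cell growth inhibition, read out with a cell viability assay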
# Description: SANGER: Inhibition of human KM12 cell growth in a cell viability assay.
# U2OS = type: functional, cell-based, Homo sapiens, U-2-OS;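 note: growth inhibition of human U-2-OS cells, determined with a cell viability assay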
# Description: SANGER: Inhibition of human U-2-OS cell growth in a cell viability assay.
# SK-MES-1 = type: functional, cell-based, Homo sapiens;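 note: growth inhibition of human SK-MES-1 cells, read out with a cell viability assay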
# Description: SANGER: Inhibition of human SK-MES-1 cell growth in a cell viability assay.
# MIA PaCa-2 = type: functional, cell-based, Homo sapiens;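 note: growth inhibition of MIA PaCa-2 cells, read out with a cell viability assay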
# Description: SANGER: Inhibition of human MIA-PaCa-2 cell growth in a cell viability assay.
# TE-6 = type: functional, cell-based, Homo sapiens;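 note: growth inhibition of TE-6 cells, read out with a cell viability assay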
# Description: SANGER: Inhibition of human TE-6 cell growth in a cell viability assay.
# SN12C = type: functional, cell-based, Homo sapiens;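 note: growth inhibition of human SN12C cells, measured by a cell viability assay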
# Description: SANGER: Inhibition of human SN12C cell growth in a cell viability assay.
# 647-V = type: functional, cell-based, Homo sapiens;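 note: growth inhibition of 647-V cells, read out with a cell viability assay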
# Description: SANGER: Inhibition of human 647-V cell growth in a cell viability assay.
# ES6 = type: functional, cell-based, Homo sapiens;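 note: growth inhibition of human ES6 cells, read out with a cell viability assay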
# Description: SANGER: Inhibition of human ES6 cell growth in a cell viability assay.
# SW 954 = type: functional, cell-based, Homo sapiens;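 note: growth inhibition of SW954 human cancer cells, read out as cell viability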
# Description: SANGER: Inhibition of human SW954 cell growth in a cell viability assay.
# TGBC1TKB = type: functional, cell-based, Homo sapiens;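 note: growth inhibition of TGBC1TKB cells, read out by a cell viability assay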
# Description: SANGER: Inhibition of human TGBC1TKB cell growth in a cell viability assay.
# EM-2 = type: functional, cell-based; details: Homo sapiens;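 note: growth inhibition of EM-2 cells, read out with a cell viability assay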
# Description: SANGER: Inhibition of human EM-2 cell growth in a cell viability assay.
# SW 962 = type: functional, cell-based, Homo sapiens;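 note: growth inhibition of human SW962 cells, read out by a cell viability assay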
# Description: SANGER: Inhibition of human SW962 cell growth in a cell viability assay.
# A704 = type: functional, cell-based, Homo sapiens;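 note: growth inhibition of human A704 cells, read out with a cell viability assay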
# Description: SANGER: Inhibition of human A704 cell growth in a cell viability assay.
# no-10 = type: functional, cell-based, Homo sapiens;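 note: growth inhibition of no-10 cells, read out with a cell viability assay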
# Description: SANGER: Inhibition of human no-10 cell growth in a cell viability assay.
# HCC 2998 = type: functional, cell-based, Homo sapiens;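 note: growth inhibition of human HCC2998 cells, measured with a cell viability read-out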
# Description: SANGER: Inhibition of human HCC2998 cell growth in a cell viability assay.
# SW1710 = type: functional, cell-based, Homo sapiens;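 note: growth inhibition of SW1710 cells, determined with a cell viability assay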
# Description: SANGER: Inhibition of human SW1710 cell growth in a cell viability assay.
# NB6 = type: functional, cell-based, Homo sapiens;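 note: growth inhibition of NB6 cells, read out by a cell viability assay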
# Description: SANGER: Inhibition of human NB6 cell growth in a cell viability assay.
# NCI-H2030 = type: functional, cell-based, Homo sapiens;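 note: growth inhibition of human NCI-H2030 cells, read out by a cell viability assay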
# Description: SANGER: Inhibition of human NCI-H2030 cell growth in a cell viability assay.
# SW837 = type: functional, cell-based, Homo sapiens;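 note: growth inhibition of SW837 cells, determined with a cell viability assay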
# Description: SANGER: Inhibition of human SW837 cell growth in a cell viability assay.
# MKN-7 = type: functional, cell-based, Homo sapiens;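 note: growth inhibition of MKN-7 cells, read out with a cell viability assay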
# Description: SANGER: Inhibition of human MKN7 cell growth in a cell viability assay.
# SW780 = type: functional, cell-based, Homo sapiens;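 note: growth inhibition of the cells, read out with a cell viability assay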
# Description: SANGER: Inhibition of human SW780 cell growth in a cell viability assay.
# GAMG = type: functional, cell-based, Homo sapiens;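 note: cell growth inhibition measured by a viability assay in the GAMG human cell line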
# Description: SANGER: Inhibition of human GAMG cell growth in a cell viability assay.
# COLO-320-HSR = type: functional, cell-based; details: Homo sapiens;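 note: growth inhibition of COLO-320-HSR cells, determined with a cell viability assay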
# Description: SANGER: Inhibition of human COLO-320-HSR cell growth in a cell viability assay.
# COLO-679 = type: functional, cell-based, Homo sapiens
# Description: SANGER: Inhibition of human COLO-679 cell growth in a cell viability assay.
# UMC-11 = type: functional, cell-based, Homo sapiens;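 note: growth inhibition of UMC-11 cells, read out with a cell viability assay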
# Description: SANGER: Inhibition of human UMC-11 cell growth in a cell viability assay.
# MHH-NB-11 = type: functional, cell-based, Homo sapiens;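 note: growth inhibition of human MHH-NB-11 cells, read out by a cell viability assay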
# Description: SANGER: Inhibition of human MHH-NB-11 cell growth in a cell viability assay.
# COLO-824 = type: functional, cell-based, Homo sapiens
# Description: SANGER: Inhibition of human COLO-824 cell growth in a cell viability assay.
# A 172 = type: functional, cell-based, Homo sapiens;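 note: growth inhibition of A172 cells, measured with a cell viability readout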
# Description: SANGER: Inhibition of human A172 cell growth in a cell viability assay.
# GR-ST = type: functional, cell-based; details: Homo sapiens
# Description: SANGER: Inhibition of human GR-ST cell growth in a cell viability assay.
compound,measurement,setting,value
Cc1cc([C@@H](C)Nc2ccccc2C(=O)O)c2nc(N3CCOCC3)cc(=O)n2c1 [AZD-6482],IC50,DOHH-2,4650 nM
same,IC50,BXPC-3; bxpc-3,> 5120 nM and 3450 nM
same,IC50,NCI-H727; nci-h727,> 5120 nM
same,IC50,NCI-N87; nci-n87,> 5120 nM
same,IC50,DOK; dok,3850 nM and 1530 nM
same,IC50,A2058,> 5120 nM
same,IC50,"LS-1034; Homo sapiens, LS-1034",> 5120 nM
same,IC50,LS-1034; ls-1034,> 5120 nM
same,IC50,"SBC-5; Homo sapiens, SBC-5",> 5120 nM
same,IC50,SBC-5; sbc-5,> 5120 nM
same,IC50,EOL1,> 5120 nM
same,IC50,AM-38; am-38,> 5120 nM
same,IC50,TE-11; te-11,> 5120 nM
same,IC50,D-263MG; d-263mg,> 5120 nM and 2170 nM
same,IC50,HT,4020 nM
same,IC50,HCC1569; hcc1569,3290 nM and > 5120 nM
same,IC50,EW-16; ew-16,> 5120 nM
same,IC50,"KINGS-1; Homo sapiens, KINGS-1",> 5120 nM
same,IC50,KINGS-1; kings-1,> 5120 nM
same,IC50,OMC-1; omc-1,> 5120 nM
same,IC50,RS4-11,738 nM
same,IC50,HOP-92; hop-92,> 5120 nM and 4580 nM
same,IC50,"NH-12; Homo sapiens, NH-12",> 5120 nM
same,IC50,NH-12; nh-12,> 5120 nM
same,IC50,DB,> 5120 nM
same,IC50,NCI-H2052; nci-h2052,> 5120 nM and 915 nM
same,IC50,KY821,> 5120 nM
same,IC50,"KM12; Homo sapiens, KM12",> 5120 nM
same,IC50,KM12; km12,> 5120 nM
same,IC50,U2OS; u-2-os,> 5120 nM and 4600 nM
same,IC50,SK-MES-1; sk-mes-1,790 nM and > 5120 nM
same,IC50,MIA PaCa-2; mia paca-2,> 5120 nM
same,IC50,TE-6; te-6,> 5120 nM
same,IC50,SN12C; sn12c,> 5120 nM
same,IC50,647-V; 647-v,> 5120 nM
same,IC50,"ES6; Homo sapiens, ES6",> 5120 nM
same,IC50,ES6; es6,> 5120 nM
same,IC50,SW 954; sw 954,4500 nM and > 5120 nM
same,IC50,TGBC1TKB; tgbc1tkb,> 5120 nM
same,IC50,EM-2,> 5120 nM
same,IC50,SW 962; sw 962,> 5120 nM and 1500 nM
same,IC50,A704; a704,> 5120 nM and 3310 nM
same,IC50,no-10,> 5120 nM
same,IC50,no-10; Homo sapiens,> 5120 nM
same,IC50,HCC 2998; hcc 2998,> 5120 nM
same,IC50,SW1710; sw1710,529 nM and 1990 nM
same,IC50,NB6; nb6,> 5120 nM
same,IC50,"NCI-H2030; Homo sapiens, NCI-H2030",2900 nM
same,IC50,NCI-H2030; nci-h2030,2690 nM
same,IC50,SW837; sw837,> 5120 nM
same,IC50,MKN-7; mkn-7,> 5120 nM
same,IC50,SW780; sw780,> 5120 nM
same,IC50,GAMG; gamg,4430 nM and 1010 nM
same,IC50,COLO-320-HSR,> 5120 nM
same,IC50,"COLO-679; Homo sapiens, COLO-679",> 5120 nM
same,IC50,COLO-679; colo-679,> 5120 nM
same,IC50,"UMC-11; Homo sapiens, UMC-11",> 5120 nM
same,IC50,UMC-11; umc-11,> 5120 nM
same,IC50,MHH-NB-11; mhh-nb-11,> 5120 nM
same,IC50,COLO-824; colo-824,> 5120 nM
same,IC50,A 172; a 172,> 5120 nM
same,IC50,GR-ST,> 5120 nM
Nc1ccn([C@@H]2O[C@H](CO)[C@@H](O)[C@@H]2O)c(=O)n1 [CYTARABINE],IC50,DOHH-2,1380 nM
same,IC50,"BXPC-3; Homo sapiens, BXPC-3",> 2000 nM
same,IC50,"NCI-H727; Homo sapiens, NCI-H727",> 2000 nM
same,IC50,"NCI-N87; Homo sapiens, NCI-N87",> 2000 nM
same,IC50,"DOK; Homo sapiens, DOK",904 nM
same,IC50,A2058,687 nM
same,IC50,"LS-1034; Homo sapiens, LS-1034",> 2000 nM
same,IC50,"SBC-5; Homo sapiens, SBC-5",> 2000 nM
same,IC50,EOL1,803 nM
same,IC50,"AM-38; Homo sapiens, AM-38",1470 nM
same,IC50,"TE-11; Homo sapiens, TE-11",> 2000 nM
same,IC50,"D-263MG; Homo sapiens, D-263MG",1170 nM
same,IC50,HT,> 2000 nM
same,IC50,"HCC1569; Homo sapiens, HCC1569",> 2000 nM
same,IC50,"EW-16; Homo sapiens, EW-16",266 nM
same,IC50,"KINGS-1; Homo sapiens, KINGS-1",> 2000 nM
same,IC50,"OMC-1; Homo sapiens, OMC-1",832 nM
same,IC50,RS4-11,381 nM
same,IC50,"HOP-92; Homo sapiens, HOP-92",354 nM
same,IC50,"NH-12; Homo sapiens, NH-12",1160 nM
same,IC50,DB,246 nM
same,IC50,"NCI-H2052; Homo sapiens, NCI-H2052",> 2000 nM
same,IC50,KY821,> 2000 nM
same,IC50,"KM12; Homo sapiens, KM12",> 2000 nM
same,IC50,"U2OS; Homo sapiens, U2OS",344 nM
same,IC50,"SK-MES-1; Homo sapiens, SK-MES-1",807 nM
same,IC50,"MIA PaCa-2; Homo sapiens, MIA PaCa-2",1490 nM
same,IC50,"TE-6; Homo sapiens, TE-6",> 2000 nM
same,IC50,"SN12C; Homo sapiens, SN12C",623 nM
same,IC50,"647-V; Homo sapiens, 647-V",1230 nM
same,IC50,"ES6; Homo sapiens, ES6",721 nM
same,IC50,"SW 954; Homo sapiens, SW 954",> 2000 nM
same,IC50,"TGBC1TKB; Homo sapiens, TGBC1TKB",> 2000 nM
same,IC50,EM-2,211 nM
same,IC50,"SW 962; Homo sapiens, SW 962",> 2000 nM
same,IC50,"A704; Homo sapiens, A704",> 2000 nM
same,IC50,no-10; Homo sapiens,> 2000 nM
same,IC50,"HCC 2998; Homo sapiens, HCC 2998",> 2000 nM
same,IC50,"SW1710; Homo sapiens, SW1710",1730 nM
same,IC50,"NB6; Homo sapiens, NB6",> 2000 nM
same,IC50,"NCI-H2030; Homo sapiens, NCI-H2030",1050 nM
same,IC50,"SW837; Homo sapiens, SW837",> 2000 nM
same,IC50,"MKN-7; Homo sapiens, MKN-7",> 2000 nM
same,IC50,"SW780; Homo sapiens, SW780",1320 nM
same,IC50,"GAMG; Homo sapiens, GAMG",394 nM
same,IC50,COLO-320-HSR,> 2000 nM
same,IC50,"COLO-679; Homo sapiens, COLO-679",> 2000 nM
same,IC50,"UMC-11; Homo sapiens, UMC-11",> 2000 nM
same,IC50,"MHH-NB-11; Homo sapiens, MHH-NB-11",728 nM
same,IC50,"COLO-824; Homo sapiens, COLO-824",> 2000 nM
same,IC50,"A 172; Homo sapiens, A 172",> 2000 nM
same,IC50,GR-ST,385 nM
